Patent US11504349B2, “Composition for preventing or treating TNF-related diseases, containing novel derivative as active ingredient, and method for inhibiting TNF activity by using same” (ILAB, priority 2017, dated 2022)

biological target: TNF (Homo sapiens, UniProt P01375); test: TNF-neutralization bioassay: TNF-induced cell death of LM cells (MTT); assay type: cell-based; settings: compound 50 μM, TNF 20 ng/ml, actinomycin D, LM cells, 24 hours
Experimental: (§1) First, the addition of recombinant TNF to mouse fibroblast LM cells induces cell death, and thus, by using the same, the TNF-neutralization bioassay was constructed. In other words, LM cells were pretreated with TNF (20 ng/ml) and the compounds synthesized in the above examples at various concentrations (5×10^4 cells/well), and a sensitizer actinomycin D ([…]) was added, and cultured in a CO2 incubator for 24 hours, and then the MTT assay was carried out. At this time, 10 μl of MTT (5 mg/ml stock) was added, reacted for 4 hours, and then dissolved in DMSO to measure the absorbance at 570 nm. First, the TNF cell death inhibition/neutralization action of TNF-target expected compounds at single concentration (50 or 10 μM) was measured. Second, IC50 values were determined by treating with the compounds having an excellent effect at different concentrations. The % inhibition of TNF was calculated using the following formula: % inhibition of TNF=(OD value of a group treated with TNF and compound−OD value of TNF treated group/(OD value of TNF untreated group−OD value of TNF treated group)×100.
(§2) IC50 values were statistically analyzed using Prism 6 (GraphPad) (IC50: 50% inhibitory concentration, CC50: 50% cytotoxic concentration).

Sequence of TNF (P01375 77-233 limits assumed): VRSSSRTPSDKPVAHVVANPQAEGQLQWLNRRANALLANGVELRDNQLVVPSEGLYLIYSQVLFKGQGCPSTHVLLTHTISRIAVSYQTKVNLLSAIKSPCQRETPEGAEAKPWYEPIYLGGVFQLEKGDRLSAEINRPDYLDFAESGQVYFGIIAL

| SMILES | inhibition at 50 µM [%] |
| --- | --- |
| O=C(O)c1c(-c2cc(F)cc(F)c2)oc2ccc(Br)cc2c1=O [Example 51, 2-(3,5-difluorophenyl)-3-carboxy-6-bromo-(4H)-4-benzopyranone] | 100 |
| O=C(O)c1c(-c2ccc(F)c(F)c2)oc2ccc(Cl)cc2c1=O [Example 67, 2-(3,4-difluorophenyl)-3-carboxy-6-chloro-(4H)-4-benzopyranone] | 100 |
| O=C(O)c1c(-c2ccco2)oc2ccc(Cl)cc2c1=O [Example 23, 2-(2-furanyl)-3-carboxy-6-chloro-(4H)-4-benzopyranone] | 70.1 |
| O=C(O)c1c(-c2cccc(F)c2)oc2ccc(Br)cc2c1=O [Example 46, 2-(3-fluorophenyl)-3-carboxy-6-bromo-(4H)-4-benzopyranone] | 100 |
| O=C(O)c1c(-c2cccc(F)c2)oc2cc(Cl)ccc2c1=O [Example 44, 2-(3-fluorophenyl)-3-carboxy-7-chloro-(4H)-4-benzopyranone] | 93.2 |
| O=C(O)c1c(-c2cccc(F)c2F)oc2ccc(Cl)cc2c1=O [Example 56, 2-(2,3-difluorophenyl)-3-carboxy-6-chloro-(4H)-4-benzopyranone] | 100 |
| O=C(O)c1c(-c2cc(F)ccc2F)oc2ccc(Cl)cc2c1=O [Example 62, 2-(2,5-difluorophenyl)-3-carboxy-6-chloro-(4H)-4-benzopyranone] | 100 |
| O=C(O)c1c(-c2cccc(F)c2F)oc2cc(Cl)ccc2c1=O [Example 55, 2-(2,3-difluorophenyl)-3-carboxy-7-chloro-(4H)-4-benzopyranone] | 100 |
| O=C(O)c1c(-c2cc(F)ccc2F)oc2ccc(Br)cc2c1=O [Example 63, 2-(2,5-difluorophenyl)-3-carboxy-6-bromo-(4H)-4-benzopyranone] | 100 |

same assay, conditions: inhibition of TNF-induced LM cell death

| SMILES | IC50 [µM] |
| --- | --- |
| O=C(O)c1c(-c2cc(F)cc(F)c2)oc2ccc(Br)cc2c1=O [Example 51, 2-(3,5-difluorophenyl)-3-carboxy-6-bromo-(4H)-4-benzopyranone] | 4.5 |
| O=C(O)c1c(-c2ccc(F)c(F)c2)oc2ccc(Cl)cc2c1=O [Example 67, 2-(3,4-difluorophenyl)-3-carboxy-6-chloro-(4H)-4-benzopyranone] | 3.9 |
| O=C(O)c1c(-c2ccco2)oc2ccc(Cl)cc2c1=O [Example 23, 2-(2-furanyl)-3-carboxy-6-chloro-(4H)-4-benzopyranone] | 2.7 |
| O=C(O)c1c(-c2cccc(F)c2)oc2ccc(Br)cc2c1=O [Example 46, 2-(3-fluorophenyl)-3-carboxy-6-bromo-(4H)-4-benzopyranone] | 28.9 |
| O=C(O)c1c(-c2cccc(F)c2)oc2cc(Cl)ccc2c1=O [Example 44, 2-(3-fluorophenyl)-3-carboxy-7-chloro-(4H)-4-benzopyranone] | 45.6 |
| O=C(O)c1c(-c2cccc(F)c2F)oc2ccc(Cl)cc2c1=O [Example 56, 2-(2,3-difluorophenyl)-3-carboxy-6-chloro-(4H)-4-benzopyranone] | 16.4 |
| O=C(O)c1c(-c2cc(F)ccc2F)oc2ccc(Cl)cc2c1=O [Example 62, 2-(2,5-difluorophenyl)-3-carboxy-6-chloro-(4H)-4-benzopyranone] | 3.8 |
| O=C(O)c1c(-c2cccc(F)c2F)oc2cc(Cl)ccc2c1=O [Example 55, 2-(2,3-difluorophenyl)-3-carboxy-7-chloro-(4H)-4-benzopyranone] | 33.6 |
| O=C(O)c1c(-c2cc(F)ccc2F)oc2ccc(Br)cc2c1=O [Example 63, 2-(2,5-difluorophenyl)-3-carboxy-6-bromo-(4H)-4-benzopyranone] | 36.9 |

system: not given; test: not given; settings: not given

| SMILES | melting point [°C] |
| --- | --- |
| O=C(O)c1c(-c2cc(F)cc(F)c2)oc2ccc(Br)cc2c1=O [Example 51, 2-(3,5-difluorophenyl)-3-carboxy-6-bromo-(4H)-4-benzopyranone] | 216 to 218 |
| O=C(O)c1c(-c2ccc(F)c(F)c2)oc2ccc(Cl)cc2c1=O [Example 67, 2-(3,4-difluorophenyl)-3-carboxy-6-chloro-(4H)-4-benzopyranone] | 195 to 198 |
| O=C(O)c1c(-c2ccco2)oc2ccc(Cl)cc2c1=O [Example 23, 2-(2-furanyl)-3-carboxy-6-chloro-(4H)-4-benzopyranone] | 196 to 198 |
| O=C(O)c1c(-c2cccc(F)c2)oc2ccc(Br)cc2c1=O [Example 46, 2-(3-fluorophenyl)-3-carboxy-6-bromo-(4H)-4-benzopyranone] | 222 to 223 |
| O=C(O)c1c(-c2cccc(F)c2)oc2cc(Cl)ccc2c1=O [Example 44, 2-(3-fluorophenyl)-3-carboxy-7-chloro-(4H)-4-benzopyranone] | 160 to 163 |
| O=C(O)c1c(-c2cccc(F)c2F)oc2ccc(Cl)cc2c1=O [Example 56, 2-(2,3-difluorophenyl)-3-carboxy-6-chloro-(4H)-4-benzopyranone] | ≥ 120 |
| O=C(O)c1c(-c2cc(F)ccc2F)oc2ccc(Cl)cc2c1=O [Example 62, 2-(2,5-difluorophenyl)-3-carboxy-6-chloro-(4H)-4-benzopyranone] | 168 to 170 |
| O=C(O)c1c(-c2cccc(F)c2F)oc2cc(Cl)ccc2c1=O [Example 55, 2-(2,3-difluorophenyl)-3-carboxy-7-chloro-(4H)-4-benzopyranone] | ≥ 220 |
| O=C(O)c1c(-c2cc(F)ccc2F)oc2ccc(Br)cc2c1=O [Example 63, 2-(2,5-difluorophenyl)-3-carboxy-6-bromo-(4H)-4-benzopyranone] | 152 to 153 |

biological target: T1, biotinylated TNF (Homo sapiens, UniProt P01375); test: Flow cytometry: binding of biotinylated TNF to Raw 264.7 cells; assay type: cell-based, mouse; settings: compound 800, 200, 5 μM, FACS, FIG. 3a
T1 construct: purchased R&D Systems NFTAO
T1 sequence (P01375 77-233 limits assumed): as above
Experimental: First, macrophage Raw 264.7 cells were prepared (4×10^6 cells/ml), and the biotinylated TNF alone or in combination with the 4-benzopyranone derivative compound (800, 200, 5 μM) was added to the cells and reacted (30 min, 4° C.). 10 μl of avidin-FITC reagent was then added and reacted in the dark (30 min, 4° C.). After washing with RDF1 buffer, FACS analysis was carried out (BD Canto). Human TNF-alpha Biotinylated Fluorokine Flow Cytometry Kit (Cat #: NFTAO) of R&D Systems was used in the experiment.

| SMILES | inhibitory activity against TNF-cell binding |
| --- | --- |
| O=C(O)c1c(-c2cc(F)cc(F)c2)oc2ccc(Br)cc2c1=O [Example 51, 2-(3,5-difluorophenyl)-3-carboxy-6-bromo-(4H)-4-benzopyranone] | moderate inhibitory activity |

system: not listed separately; test: Cytotoxicity (CC50) in LM cells, MTT assay; assay type: cell-based; settings: mouse, LM cells (mouse fibroblasts); 50% cytotoxic concentration
Experimental: as §1, §2

| SMILES | CC50 at 24 h [µM] |
| --- | --- |
| O=C(O)c1c(-c2cc(F)cc(F)c2)oc2ccc(Br)cc2c1=O [Example 51, 2-(3,5-difluorophenyl)-3-carboxy-6-bromo-(4H)-4-benzopyranone] | 13 |
| O=C(O)c1c(-c2ccc(F)c(F)c2)oc2ccc(Cl)cc2c1=O [Example 67, 2-(3,4-difluorophenyl)-3-carboxy-6-chloro-(4H)-4-benzopyranone] | 21 |
| O=C(O)c1c(-c2ccco2)oc2ccc(Cl)cc2c1=O [Example 23, 2-(2-furanyl)-3-carboxy-6-chloro-(4H)-4-benzopyranone] | > 50 |
| O=C(O)c1c(-c2cccc(F)c2)oc2ccc(Br)cc2c1=O [Example 46, 2-(3-fluorophenyl)-3-carboxy-6-bromo-(4H)-4-benzopyranone] | > 50 |
| O=C(O)c1c(-c2cccc(F)c2)oc2cc(Cl)ccc2c1=O [Example 44, 2-(3-fluorophenyl)-3-carboxy-7-chloro-(4H)-4-benzopyranone] | > 50 |
| O=C(O)c1c(-c2cccc(F)c2F)oc2ccc(Cl)cc2c1=O [Example 56, 2-(2,3-difluorophenyl)-3-carboxy-6-chloro-(4H)-4-benzopyranone] | 49 |
| O=C(O)c1c(-c2cc(F)ccc2F)oc2ccc(Cl)cc2c1=O [Example 62, 2-(2,5-difluorophenyl)-3-carboxy-6-chloro-(4H)-4-benzopyranone] | 17 |
| O=C(O)c1c(-c2cccc(F)c2F)oc2cc(Cl)ccc2c1=O [Example 55, 2-(2,3-difluorophenyl)-3-carboxy-7-chloro-(4H)-4-benzopyranone] | 25 |
| O=C(O)c1c(-c2cc(F)ccc2F)oc2ccc(Br)cc2c1=O [Example 63, 2-(2,5-difluorophenyl)-3-carboxy-6-bromo-(4H)-4-benzopyranone] | 36 |
